ChEMBL document CHEMBL1146759, “Chemo- and stereoselective synthesis of benzocycloheptene and 1-benzoxepin derivatives as alpha-sympathomimetic and anorexigenic agents” (Bioorg Med Chem Lett, 2004)
Activity calls are given as the source filed them. The rule behind the calls is not given here.

Tested on: not listed separately
Assay: Effect on change in blood pressure in mice
Assay type: functional
Details: not given

Row | SMILES | Change in blood pressure [mmHg]
1 | COc1ccc2c(c1)[C@H](O)[C@@H](N)CCO2 | 40
2 | COc1ccc2c(c1)[C@H](O)[C@H](N)CCO2 | 20
3 | Cc1ccc2c(c1)[C@H](O)[C@H](N)CCO2 | 10
4 | N[C@H]1CCOc2ccccc2[C@@H]1O | 32
5 | Cc1ccc2c(c1)[C@H](O)[C@@H](N)CCO2 | 38
6 | N[C@@H]1CCOc2ccccc2[C@@H]1O | 44

Tested on: not listed separately
Assay: Effect on change in blood pressure in […]; no effect
Assay type: functional, organism-based
Details: not given

Row | SMILES | Change in blood pressure
7 | N[C@@H]1CCCc2ccccc2[C@@H]1O | inactive
8 | Cc1cc2c(cc1C)[C@H](O)[C@H](N)CCC2 | inactive
9 | N[C@H]1CCCc2ccccc2[C@@H]1O | inactive
10 | COc1cc2c(cc1OC)[C@H](O)[C@H](N)CCC2 | inactive

Tested on: Mus musculus
Assay: Effective dose for anorexigenic activity when administered to mice intraperitoneally
Assay type: functional
Details: ip

Row | SMILES | ED50 [mg/kg]
11 | N[C@H]1CCOc2ccccc2[C@@H]1O | 55
12 | N[C@@H]1CCOc2ccccc2[C@@H]1O | 75

Tested on: Mus musculus
Assay: Protection against amphetamine toxicity in mice when administered percutaneously
Assay type: functional
Details: not given

Row | SMILES | ED50 [mg/kg]
13 | N[C@@H]1CCCc2ccccc2[C@@H]1O | 73

Tested on: Mus musculus
Assay: Effective dose for anorexigenic activity when administered to mice intraperitoneally; no effect
Assay type: functional, organism-based
Details: not given

Row | SMILES | ED50
14 | COc1ccc2c(c1)[C@H](O)[C@@H](N)CCO2 | inactive
15 | COc1ccc2c(c1)[C@H](O)[C@H](N)CCO2 | inactive
16 | Cc1ccc2c(c1)[C@H](O)[C@H](N)CCO2 | inactive
17 | Cc1ccc2c(c1)[C@H](O)[C@@H](N)CCO2 | inactive

Tested on: not listed separately
Assay: Acute toxicity when administered intraperitoneally in mice
Assay type: organism-based
Details: mouse, in vivo, ip; read-out: ALD50

Row | SMILES | LD50 [mg/kg]
18 | COc1ccc2c(c1)[C@H](O)[C@@H](N)CCO2 | 150
19 | COc1ccc2c(c1)[C@H](O)[C@H](N)CCO2 | 150
20 | N[C@@H]1CCCc2cc(O)c(O)cc2[C@@H]1O | 150
21 | Cc1ccc2c(c1)[C@H](O)[C@H](N)CCO2 | 300
22 | N[C@@H]1CCCc2ccccc2[C@@H]1O | 150
23 | N[C@H]1CCOc2ccccc2[C@@H]1O | 500
24 | Cc1cc2c(cc1C)[C@H](O)[C@H](N)CCC2 | 150
25 | N[C@H]1CCCc2ccccc2[C@@H]1O | 150
26 | Cc1ccc2c(c1)[C@H](O)[C@@H](N)CCO2 | 150
27 | N[C@@H]1CCOc2ccccc2[C@@H]1O | 800
28 | COc1cc2c(cc1OC)[C@H](O)[C@H](N)CCC2 | 150

Tested on: Mus musculus
Assay: Protection against amphetamine toxicity in mice when administered percutaneously; no effect
Assay type: functional, organism-based
Details: not given

Row | SMILES | ED50
29 | N[C@@H]1CCCc2cc(O)c(O)cc2[C@@H]1O | inactive
30 | Cc1cc2c(cc1C)[C@H](O)[C@H](N)CCC2 | inactive
31 | N[C@H]1CCCc2ccccc2[C@@H]1O | inactive
32 | COc1cc2c(cc1OC)[C@H](O)[C@H](N)CCC2 | inactive
